According to US20260240179A1, “EDIBLE COMPOSITIONS AND METHODS FOR THE PRESERVATION OF FRUITS AND VEGETABLES” (ONYX LOTUS, LLC, priority 2023, published 2026):
Where “and” joins values, the source holds several entries; their conditions need not be identical. Equal values may be shown once.

Tests used:
[1] = tested on: blueberries; assay: Weight of dipped blueberries over time (moisture retention and freshness)
[2] = tested on: Java plums; assay: Weight of dipped Java plums over time (moisture retention and freshness)
Description: Starting with two sets of java plums, each set containing eight plums, a control set is dipped in 95% ethanol and placed at room temperature and 50% Relative humidity. A second set, the treatment set, is dipped in a zein composition consisting of 100 mL 95% Ethanol+6 g zein powder. […] were weighed on days 1, 2, 3, 4, 6, 7. Weights were taken to approximate moisture retention and freshness. After 7 days, average weight loss of control (no zein applied) Java plums was 28.5% compared to 23.6% weight loss for zein treatment. Java plums treated with zein retained 17.2% more moisture compared to untreated plums.

[3] = single fruit samples, zein dip (6 g in 100 mL 95% ethanol), 23-25° C., Day 1

Substance: zein
- average weight loss ([1]; blueberries, after nine days, dipped in 100 mL 95% ethanol+6 g zein powder, control 43.1%): 37.2%
- more moisture retained compared to untreated berries ([1]; blueberries, after nine days, zein dip): 13.7%
- Weight of blueberries, Day 1 [1, 3]: 1.6 grams and 1.79 grams and 1.62 grams and 1.71 grams and 1.7 grams
- Weight of blueberries, Day 2 ([1]; zein dip, 23-25° C., Day 2): 1.52 grams and 1.7 grams and 1.53 grams and 1.63 grams
- Weight of blueberries, Day 3 ([1]; zein dip, 23-25° C., Day 3): 1.44 grams and 1.6 grams and 1.54 grams and 1.55 grams
- Weight of blueberries, Day 5 ([1]; zein dip, 23-25° C., Day 5): 1.3 grams and 1.65 grams and 1.99 grams and 1.63 grams
- Weight of blueberries, Day 6 ([1]; zein dip, 23-25° C., Day 6): 1.23 grams and 1.22 grams and 1.37 grams and 1.32 grams and 1.36 grams
- Weight of blueberries, Day 7 ([1]; zein dip, 23-25° C., Day 7): 1.16 grams and 1.31 grams and 1.26 grams and 1.3 grams
- Weight of blueberries, Day 8 ([1]; zein dip, 23-25° C., Day 8): 1.09 grams and 1.1 grams and 1.26 grams and 1.19 grams
- Weight of blueberries, Day 11 ([1]; zein dip, 23-25° C., Day 11): 1.06 grams and 1.2 grams and 1.15 grams and 1.19 grams
- Weight of blueberries, Day 12 ([1]; zein dip, 23-25° C., Day 12): 0.97 grams and 0.98 grams and 1.12 grams and 1.08 grams and 1.13 grams
- Weight of blueberries, Day 13 ([1]; zein dip, 23-25° C., Day 13): 0.85 grams and 0.86 grams and 1.01 grams and 0.97 grams
- Weight of blueberries, Day 14 ([1]; zein dip, 23-25° C., Day 14): 0.82 grams and 0.832 grams and 0.98 grams and 0.94 grams
- average weight loss ([2]; Java plums, after 7 days, dipped in 100 mL 95% ethanol+6 g zein powder, control 28.5%): 23.6%
- more moisture retained compared to untreated plums ([2]; Java plums, after 7 days, zein dip): 17.2%
- Weight of Java plums, Day 1 [2, 3]: 15.82 grams and 15.19 grams and 11.63 grams and 11.83 grams and 16.16 grams and 14.65 grams and 14.35 grams and 12.88 grams
- Weight of Java plums, Day 2 ([2]; zein dip, 23-25° C., Day 2): 15.03 grams and 14.42 grams and 10.79 grams and 11.19 grams and 13.65 grams and 13.13 grams and 13.63 grams and 12.24 grams
- Weight of Java plums, Day 3 ([2]; zein dip, 23-25° C., Day 3): 14.46 grams and 13.88 grams and 10.33 grams and 10.72 grams and 12.96 grams and 19.13 grams and 11.78 grams
- Weight of Java plums, Day 4 ([2]; zein dip, 23-25° C., Day 4): 13.72 grams and 13.16 grams and 9.72 grams and 9.12 grams and 12.36 grams and 12.67 grams and 11.18 grams
- Weight of Java plums, Day 6 ([2]; zein dip, 23-25° C., Day 6): 12.53 grams and 12.02 grams and 8.73 grams and 11.33 grams and 11.39 grams and 10.2 grams
- Weight of Java plums, Day 7 ([2]; zein dip, 23-25° C., Day 7): 12.15 grams and 11.66 grams and 8.4 grams and 11 grams and 11.03 grams and 9.87 grams
